Experimental data as given in paper PMC4586589 (The Journal of General Physiology, 2015).

Target: T1, ELIC (Erwinia chrysanthemi ligand-gated ion channel) (Dickeya chrysanthemi, UniProt P0C7B7)
T1 sequence (P0C7B7 1-321): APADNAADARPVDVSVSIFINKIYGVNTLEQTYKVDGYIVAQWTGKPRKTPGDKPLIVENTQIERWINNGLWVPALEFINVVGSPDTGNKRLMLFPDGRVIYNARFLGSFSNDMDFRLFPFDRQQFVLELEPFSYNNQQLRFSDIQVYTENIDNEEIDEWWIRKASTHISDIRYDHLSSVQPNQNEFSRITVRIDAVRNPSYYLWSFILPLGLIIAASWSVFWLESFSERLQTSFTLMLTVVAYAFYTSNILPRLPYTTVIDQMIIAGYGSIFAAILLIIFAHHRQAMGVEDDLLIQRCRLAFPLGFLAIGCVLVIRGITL
Assay: ITC
Assay type: cell-based

SMILES: NCCCO [3-AP, 3-amino propanol]
- EC50: 10.02 ± 0.05 mM
